Here are results for three molecules from patent US12161666B2, “Composition comprising cinnamaldehyde and zinc to improve swallowing” (SOCIÉTÉ DES PRODUITS NESTLÉ S.A., priority 2014, dated 2024).

For assay [1], the target named is T1, hTRPA1 expressed in CHO cells (Homo sapiens, UniProt O75762).
T1 construct: expressed in transfected cells; host or cells: CHO cells
In words: in vitro activity of hTRPA1 expressed in CHO cells, intracellular calcium measured with a fluorescent dye. The format is cell-based. The arrangement: efficacy on hTRPA1 according to dose-response curve: dose or concentration left out as unconfirmed. As to the method: The in vitro activity of hTRPA1 expressed in CHO cells was measured for 10 μM cinnamaldehyde and 0.3 μM zinc individually, as well as the combination.

The next assay addresses TRPA1 (Homo sapiens, UniProt O75762). The conditions noted are these: read-out: EC50 of TRPA1 activation; cited from earlier work.
Another assay has as its target TRPM8 (Homo sapiens, UniProt Q7Z2W7). The note with it: cited from earlier work.
The next assay has as its target TRPV1 (Homo sapiens, UniProt Q8NER1). The conditions noted are these: cited from earlier work.
The conditions of assay [2]: oral administration; cited from earlier work.

T1 sequence (O75762 whole entry): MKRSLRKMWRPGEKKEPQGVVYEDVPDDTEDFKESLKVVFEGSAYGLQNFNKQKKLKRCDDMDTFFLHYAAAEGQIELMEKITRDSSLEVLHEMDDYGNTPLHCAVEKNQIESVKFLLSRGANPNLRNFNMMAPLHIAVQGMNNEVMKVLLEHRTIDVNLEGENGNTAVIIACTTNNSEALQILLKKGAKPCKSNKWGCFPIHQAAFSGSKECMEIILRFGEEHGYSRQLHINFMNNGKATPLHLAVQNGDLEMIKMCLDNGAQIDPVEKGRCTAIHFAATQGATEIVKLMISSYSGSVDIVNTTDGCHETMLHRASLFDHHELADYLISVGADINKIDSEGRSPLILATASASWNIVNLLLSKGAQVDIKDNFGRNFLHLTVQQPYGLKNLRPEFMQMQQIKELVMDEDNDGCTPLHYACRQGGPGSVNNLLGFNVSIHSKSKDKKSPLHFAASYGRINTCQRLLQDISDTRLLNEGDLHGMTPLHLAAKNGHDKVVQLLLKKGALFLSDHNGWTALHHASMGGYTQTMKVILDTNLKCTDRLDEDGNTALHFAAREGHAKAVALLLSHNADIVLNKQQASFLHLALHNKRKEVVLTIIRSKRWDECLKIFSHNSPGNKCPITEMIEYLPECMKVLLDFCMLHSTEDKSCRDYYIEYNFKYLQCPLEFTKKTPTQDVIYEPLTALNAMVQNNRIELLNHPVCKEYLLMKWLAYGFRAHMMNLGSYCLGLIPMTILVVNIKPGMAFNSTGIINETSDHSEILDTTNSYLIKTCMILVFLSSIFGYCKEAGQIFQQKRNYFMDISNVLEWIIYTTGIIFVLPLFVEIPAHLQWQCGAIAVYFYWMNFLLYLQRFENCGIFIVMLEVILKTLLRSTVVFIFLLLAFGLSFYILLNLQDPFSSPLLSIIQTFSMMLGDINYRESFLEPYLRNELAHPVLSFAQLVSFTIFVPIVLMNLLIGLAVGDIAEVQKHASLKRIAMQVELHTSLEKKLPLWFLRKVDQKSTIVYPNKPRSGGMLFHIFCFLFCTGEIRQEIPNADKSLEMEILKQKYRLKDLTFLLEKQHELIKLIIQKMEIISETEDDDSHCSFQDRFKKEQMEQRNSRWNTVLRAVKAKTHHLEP
TRPV1, sequence (Q8NER1 whole entry, species assumed): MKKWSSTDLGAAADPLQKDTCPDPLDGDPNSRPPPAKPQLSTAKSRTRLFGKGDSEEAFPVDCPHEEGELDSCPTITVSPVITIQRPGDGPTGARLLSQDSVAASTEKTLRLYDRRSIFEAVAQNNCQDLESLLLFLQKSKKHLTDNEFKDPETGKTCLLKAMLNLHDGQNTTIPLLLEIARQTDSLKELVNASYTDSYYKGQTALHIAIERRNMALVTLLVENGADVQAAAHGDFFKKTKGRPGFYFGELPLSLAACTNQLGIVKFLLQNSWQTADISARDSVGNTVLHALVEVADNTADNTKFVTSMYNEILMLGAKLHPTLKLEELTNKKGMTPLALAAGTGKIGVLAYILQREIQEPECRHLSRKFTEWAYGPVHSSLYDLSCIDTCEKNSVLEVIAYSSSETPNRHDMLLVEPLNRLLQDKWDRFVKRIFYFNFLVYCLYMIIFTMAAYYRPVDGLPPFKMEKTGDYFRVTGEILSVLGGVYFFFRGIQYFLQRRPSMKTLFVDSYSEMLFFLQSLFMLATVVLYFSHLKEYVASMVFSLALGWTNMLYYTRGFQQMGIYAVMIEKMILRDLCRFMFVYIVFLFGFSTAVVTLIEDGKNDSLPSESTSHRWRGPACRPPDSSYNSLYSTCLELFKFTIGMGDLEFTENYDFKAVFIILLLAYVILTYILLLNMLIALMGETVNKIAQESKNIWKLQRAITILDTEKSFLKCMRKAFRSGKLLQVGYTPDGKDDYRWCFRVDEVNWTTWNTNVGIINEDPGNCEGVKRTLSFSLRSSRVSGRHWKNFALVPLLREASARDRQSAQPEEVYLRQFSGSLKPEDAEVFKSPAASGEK
TRPM8, sequence (Q7Z2W7 whole entry, species assumed): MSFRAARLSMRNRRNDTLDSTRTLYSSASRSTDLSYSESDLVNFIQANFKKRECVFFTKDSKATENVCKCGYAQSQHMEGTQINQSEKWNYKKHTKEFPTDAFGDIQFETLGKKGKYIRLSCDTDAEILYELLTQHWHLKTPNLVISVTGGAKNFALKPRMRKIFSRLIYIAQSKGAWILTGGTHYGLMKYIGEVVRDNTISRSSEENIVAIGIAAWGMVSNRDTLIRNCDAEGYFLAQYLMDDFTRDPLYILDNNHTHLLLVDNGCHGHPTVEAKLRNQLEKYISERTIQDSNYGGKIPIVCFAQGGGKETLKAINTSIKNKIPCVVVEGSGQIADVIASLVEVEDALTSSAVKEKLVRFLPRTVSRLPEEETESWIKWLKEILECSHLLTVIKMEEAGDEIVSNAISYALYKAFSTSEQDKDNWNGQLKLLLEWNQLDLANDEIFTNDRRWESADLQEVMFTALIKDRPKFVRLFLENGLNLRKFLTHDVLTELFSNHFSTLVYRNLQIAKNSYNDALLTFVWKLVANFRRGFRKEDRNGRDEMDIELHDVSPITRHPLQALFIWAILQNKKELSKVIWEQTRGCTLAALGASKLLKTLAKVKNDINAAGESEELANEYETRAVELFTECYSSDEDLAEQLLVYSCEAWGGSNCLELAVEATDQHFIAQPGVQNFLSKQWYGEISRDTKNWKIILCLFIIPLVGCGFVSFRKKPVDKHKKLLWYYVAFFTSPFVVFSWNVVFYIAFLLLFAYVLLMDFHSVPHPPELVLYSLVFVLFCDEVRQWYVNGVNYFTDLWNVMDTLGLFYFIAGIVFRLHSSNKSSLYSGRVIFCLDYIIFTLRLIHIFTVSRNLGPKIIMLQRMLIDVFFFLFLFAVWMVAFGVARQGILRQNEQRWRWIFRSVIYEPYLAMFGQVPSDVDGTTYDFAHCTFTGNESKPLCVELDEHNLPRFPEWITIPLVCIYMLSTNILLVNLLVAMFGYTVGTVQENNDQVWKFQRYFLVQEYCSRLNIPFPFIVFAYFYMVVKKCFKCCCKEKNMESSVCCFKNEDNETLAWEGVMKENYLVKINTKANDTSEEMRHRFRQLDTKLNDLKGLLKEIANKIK
TRPA1, sequence (O75762 whole entry, species assumed): as the sequence (O75762 whole entry) above

A word on the EC50: it is the midpoint of the concentration-response curve. In the case of `O=CC=Cc1ccccc1` [cinnamaldehyde], the “efficacy on hTRPA1 according to dose-response curve” value in assay [1] (positive control C+, CHO cells) is “maximum efficacy”. For the same molecule, on TRPA1, the EC50 is roughly 10 µM. On TRPM8, the “activation of TRPM8” value is on record as “not TRPV1 or TRPM8”. Moreover, at TRPV1, the “activation of TRPV1” value is given as “not TRPV1”.
zinc: the “concentration of zinc required for the synergy with cinnamaldehyde on TRPA1” value in assay [1] (in vitro) is less than 1 µM.
In the case of `COc1cc(CNC(=O)CCCC/C=C/C(C)C)ccc1O` [capsaicin], the “promotion of swallow reflex” value in assay [2] is reported as “shown to promote a swallow reflex”.
